One may read the IC50 as the point on the concentration scale where inhibition reaches its midpoint.

In one data set the target is EZH2 (Homo sapiens, UniProt Q15910). Description: EZH2 nuc BSA Brij 1.5 (IC50): rPRC2, biotinylated oligonucleosome substrate, 3H SAM FlashPlate. It counts as biochemical. As to conditions: read-out: EZH2 nuc BSA Brij 1.5 (IC50); 2 nM EZH2, 0.2 μM biotinylated oligonucleosomes, 0.2 μM 3H SAM, 3.6 μM H3K27me3 peptide. Put shortly:
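rPRC2 (2 nM EZH2) with 0.2 μM biotinylated oligonucleosomes, 0.2 μM 3H-SAM and 3.6 μM H3K27me3 peptide in pH 8.5 Tris with Brij-35 and BSA. Compounds, 80–0.16 μM in ten 2-fold steps, pre-incubated 20 min before a 60 min reaction. SAH/EDTA quench, streptavidin FlashPlate capture, scintillation count; IC50 from a 4-parameter fit.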

The nature of data set [1]: In vitro metabolism, mouse liver microsomes. It counts as in vitro ADME. As to conditions: 10 μM compound, 0.7 mg protein/mL, read-out: intrinsic clearance. As to the method: The in vitro metabolism of compound 21 was evaluated by disappearance of compound in mouse, rat, dog and human liver microsomes at 10 μM compound concentration.
Data is expressed in μL/min/mg protein.

Data set [2] can be described thus: Plasma-tissue distribution and glucuronide formation in BALB/C mice. The note with it: mouse, male BALB/C mice, oral gavage 100 mg/kg, 1 hour after dosing. It counts as in vivo. As to the method: 1 h after dosing a group of mice (3 mice/group) via oral gavage at 100 mg/kg of compound 21, blood is collected from the submandibular or saphenous vein (˜30 μL) and tissue is collected from the biceps femoris (both sides). After tissue preparation and homogenization, plasma and tissue samples are assayed for parent drug using LC/MS/MS methodologies with internal standard. The glucuronide metabolites (parent mass +176) are also monitored via LC/MS/MS and compared to the internal standard for quantitation.

Data set [3] is described as follows: Mean plasma and tumor concentration, 7-day study in SCID mice. As to conditions: mouse, po, female SCID mice. It counts as in vivo.

Molecules are shown by their SMILES. Read-outs that look alike come from different tables or passages of the source.

Sequence of EZH2 (Q15910 whole entry): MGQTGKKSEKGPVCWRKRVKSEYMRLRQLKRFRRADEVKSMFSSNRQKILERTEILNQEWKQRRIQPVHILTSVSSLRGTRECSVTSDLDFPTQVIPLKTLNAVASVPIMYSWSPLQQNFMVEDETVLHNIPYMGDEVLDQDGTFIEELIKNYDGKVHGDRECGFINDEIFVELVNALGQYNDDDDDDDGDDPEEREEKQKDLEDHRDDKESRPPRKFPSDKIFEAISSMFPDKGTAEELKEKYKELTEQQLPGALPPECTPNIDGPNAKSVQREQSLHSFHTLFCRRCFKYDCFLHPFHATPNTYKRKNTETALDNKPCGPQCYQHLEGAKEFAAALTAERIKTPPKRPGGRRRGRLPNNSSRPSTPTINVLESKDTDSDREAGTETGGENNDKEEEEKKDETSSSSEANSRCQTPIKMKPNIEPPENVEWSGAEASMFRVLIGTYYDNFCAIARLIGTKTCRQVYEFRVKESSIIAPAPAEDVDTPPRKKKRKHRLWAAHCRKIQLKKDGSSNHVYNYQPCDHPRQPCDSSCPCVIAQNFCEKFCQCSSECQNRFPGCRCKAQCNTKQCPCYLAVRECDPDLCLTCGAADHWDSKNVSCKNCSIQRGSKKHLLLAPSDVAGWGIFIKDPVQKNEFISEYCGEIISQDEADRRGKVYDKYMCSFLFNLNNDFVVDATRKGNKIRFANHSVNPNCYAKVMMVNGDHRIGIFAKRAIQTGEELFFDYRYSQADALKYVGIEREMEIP
Sequence of EZH2 (O75530 whole entry partner): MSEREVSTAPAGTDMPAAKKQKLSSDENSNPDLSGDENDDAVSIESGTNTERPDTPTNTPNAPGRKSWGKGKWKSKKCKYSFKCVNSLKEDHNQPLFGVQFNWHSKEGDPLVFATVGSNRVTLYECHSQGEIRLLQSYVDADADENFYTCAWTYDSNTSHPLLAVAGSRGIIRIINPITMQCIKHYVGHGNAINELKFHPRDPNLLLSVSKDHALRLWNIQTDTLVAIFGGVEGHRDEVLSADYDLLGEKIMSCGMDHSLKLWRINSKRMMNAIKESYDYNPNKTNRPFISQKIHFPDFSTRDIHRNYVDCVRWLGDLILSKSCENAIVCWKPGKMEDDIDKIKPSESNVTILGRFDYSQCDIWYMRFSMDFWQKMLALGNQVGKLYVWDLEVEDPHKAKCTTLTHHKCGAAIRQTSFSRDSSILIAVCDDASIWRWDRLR
Sequence of EZH2 (Q15022 whole entry partner): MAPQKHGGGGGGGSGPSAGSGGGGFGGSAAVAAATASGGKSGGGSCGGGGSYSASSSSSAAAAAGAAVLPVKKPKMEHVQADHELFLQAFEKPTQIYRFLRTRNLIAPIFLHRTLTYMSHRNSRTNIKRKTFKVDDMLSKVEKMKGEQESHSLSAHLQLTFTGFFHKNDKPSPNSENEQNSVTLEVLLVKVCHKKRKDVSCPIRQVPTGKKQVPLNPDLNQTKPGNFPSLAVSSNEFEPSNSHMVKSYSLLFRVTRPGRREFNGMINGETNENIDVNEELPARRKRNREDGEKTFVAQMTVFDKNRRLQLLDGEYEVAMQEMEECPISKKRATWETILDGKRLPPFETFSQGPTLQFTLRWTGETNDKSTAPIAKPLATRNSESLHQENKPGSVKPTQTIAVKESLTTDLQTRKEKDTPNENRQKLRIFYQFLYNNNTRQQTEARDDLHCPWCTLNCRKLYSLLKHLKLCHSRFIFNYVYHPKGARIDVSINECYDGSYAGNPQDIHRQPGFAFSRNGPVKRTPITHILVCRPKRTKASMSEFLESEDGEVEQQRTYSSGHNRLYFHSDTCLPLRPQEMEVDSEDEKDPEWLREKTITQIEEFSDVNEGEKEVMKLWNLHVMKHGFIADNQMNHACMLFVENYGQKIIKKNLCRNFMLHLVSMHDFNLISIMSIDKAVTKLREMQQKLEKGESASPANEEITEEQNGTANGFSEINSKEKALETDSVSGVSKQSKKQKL

As for `COc1cc(C)[nH]c(=O)c1CNC(=O)c1c(C)n(C(C)C2CCN(C)C(C(F)(F)F)C2)c2ccccc12` (single isomer, unassigned) [Compound 21, N-((4-methoxy-6-methyl-2-oxo-1,2-dihydropyridin-3-yl)methyl)-2-methyl-1-(1-(1-methyl-2-(trifluoromethyl)piperidin-4-yl)ethyl)-1H-indole-3-carboxamide], the IC50 on EZH2 is less than 100 nM. Besides, the microsomal CLint at 10 μM in data set [1] turned out to be 55 µL/min/mg. For the same compound, the concentration at 1 h in data set [2] (muscle (biceps femoris), biceps femoris, read-out: Conc. in Muscle) came out at 7240 ng/g; in data set [2] (plasma, read-out: Conc. in Plasma) it was 8370 ng/mL. Moreover, the Kp at 1 h in data set [2] (muscle/plasma, read-out: Ratio Muscle/Plasma) is 0.86. The concentration at 7 day worked out at 280 ng/mL in data set [3] (plasma, 100 mg/kg P.O. BID, read-out: Mean Plasma Conc); 1600 ng/mL in data set [3] (plasma, 200 mg/kg P.O. BID, read-out: Mean Plasma Conc); 451 ng/g in data set [3] (tumor, 100 mg/kg P.O. BID, read-out: Mean Tumor Conc); 693 ng/g in data set [3] (tumor, 200 mg/kg P.O. BID, read-out: Mean Tumor Conc).

For the origin of these results see patent publication US20180037568A1, “MODULATORS OF METHYL MODIFYING ENZYMES, COMPOSITIONS AND USES THEREOF” (Constellation Pharmaceuticals, Inc., priority 2015, published 2018).
